# Source: patent EP4310070A1, “USE OF TRANS AMANTADINE DERIVATIVE OR SALT THEREOF” (Chengdu Shibeikang Biomedical Technology Co., Ltd., priority 2021, dated 2022)
# Counter-ions that a name gives are not always drawn. Marks after values point to notes of the source that are not given here.
# What was measured:
# [1] = tested on: ammonia-induced coughing response in mice; assay: cough response of mice induced by ammonia water; format: in vivo, KM mice
# Experimental: 50 KM mice, weighing 18-22g, of both sexes were used and randomly divided into 5 groups, a model control group, a Formula I compound group (15 mg/kg, in terms of free base), a Formula V compound group (15 mg/kg, in terms of free base), a Comparative Example group (15 mg/kg, in terms of free base), and an ambroxol hydrochloride group (15 mg/kg, in terms of free base), 10 animals in each group, and were administered intravenously (dissolved in normal saline by adjusting pH or directly dissolved in normal saline). 30 minutes after the administration, the mice were put in an inverted beaker with a volume of 500ml and a cotton ball inside. Timing was started once 0.2ml of concentrated ammonia/mouse was added onto the cotton ball. The number of coughs of each animal within 3 minutes was observed and recorded. Here, the medicament used for the Comparative Example group was the 4-[(2-amino-3,5-dibromobenzyl)amino]adamantan-1-ol hydrochloride (racemic) prepared in Comparative Example 1. Table 3. Effect on ammonia-induced coughing response in mice (x ± s, n=10)
# [2] = tested on: expectoration amount by rat capillary tube expectoration; assay: rat capillary sputum excretion test; format: in vivo, SD rats; settings: length of liquid in capillary tube within 90 minutes; 15 mg/kg in terms of free base via tail vein, 30 minutes after administration; n=10; vehicle control 22.7±4.41; hydrochloride, 15 mg/kg
# Experimental: 180-220g SD rats of both sexes were used and divided into random groups, with 10 rats in each group, namely a vehicle control group, a Formula I compound group (15 mg/kg, in terms of free base), a Formula V compound group (15 mg/kg, in terms of free base), a Comparative Example group (15 mg/kg, in terms of free base) and ambroxol hydrochloride (15 mg/kg, in terms of free base). The rats were fasted and restrained from water for 12 hours before testing the amount of sputum excretion, and administered the respective medicaments via the tail vein (dissolved in normal saline by adjusting pH or directly dissolved in normal saline). 30 minutes after the administration, they were anesthetized by intraperitoneally injecting 1g/kg of a urethane solution in saline, fixed in supine position, and the trachea was separated after cutting through neck skin. A small hole was pierced by using a syringe needle between the two cartilage rings on the lower edge of the thyroid cartilage, and a capillary tube (with an inner diameter of 0.8mm, and a length of 10cm) was inserted centripetally into the trachea. Sputum was collected while adjusting the angle between the capillary tube and the trachea, and the total number of the length of liquids in the capillary tube (mm) was used to evaluate the expectoration effect. The amount of expectoration of the rats within 90 minutes was recorded. Here, the medicament used for the Comparative Example group was the 4-[(2-amino-3,5-dibromobenzyl)amino]adamantan-1-ol hydrochloride (racemic) prepared in Comparative Example 1. Table 4. Results of the effect on the expectoration amount by rat capillary tube expectoration
# [3] = tested on: tracheal phenol red secretion in mice; assay: phenol red expectoration test in mice; format: in vivo; settings: colorimetric measurement at 546nm; 30 mg/kg in terms of free base via tail vein 2 times in a row; x ± s, n=12; control 0.095±0.022; hydrochloride
# Experimental: Experimental method: 60 mice of both sexes were used and randomly divided into a control (normal saline) group, a Formula I compound group (30 mg/kg, in terms of free base), a Formula V compound group (30 mg/kg, in terms of free base), a Comparative Example group (30 mg/kg, in terms of free base) and ambroxol hydrochloride (30 mg/kg, in terms of free base), 12 rats in each group; the respective medicaments were administered via the tail vein (dissolved in normal saline by adjusting pH or directly dissolved in normal saline) 2 times in a row. 15 minutes after the last administration to the mice, a 5% phenol red solution in normal saline (0.5g/kg) was subcutaneously injected. After 30 minutes, the mice were sacrificed and a section of the trachea was cut from below the thyroid cartilage to the trachea branch. The section was placed in a test tube containing 1 mL of normal saline, shaken and soaked for 30 minutes, and then centrifuged for 10 minutes (3000 r/min). The supernatant was transferred to another test tube, 0.1 mL of 1M NaOH solution was added, and shaken uniformly for a colorimetric measurement at 546nm. The effects of each group on the tracheal phenol red secretion in mice were statistically compared, and the experimental results obtained are shown in Table 5 below. Here, the medicament used for the Comparative Example group was the 4-[(2-amino-3,5-dibromobenzyl)amino]adamantan-1-ol hydrochloride (racemic) prepared in Comparative Example 1. Table 5. Effects on tracheal phenol red secretion in mice (x ± s)
# [4] = tested on: acute lung injury in mice induced by oleic acid; assay: acute lung injury test in mouse (oleic acid-induced, histological grading of lung pathology); format: in vivo, KM mice
# Experimental: KM mice, weighing 18-22g, with all 66 being males, were used and randomly grouped into a normal control group, a model control group, a Formula I compound group (40 mg/kg, in terms of free base), a Formula V compound group (40 mg/kg, in terms of free base), a Comparative Example group (40 mg/kg, in terms of free base), and an ambroxol hydrochloride group (40 mg/kg, in terms of free base), 11 animals in each group, and each group was administered intravenously (dissolved in normal saline by adjusting pH or directly dissolved in normal saline) once a day for 4 times, while the model control group and the normal control group were given an equivalent amount of normal saline. 30 minutes after the last administration, except for the normal control group, all other mice were administered 300 mg/kg oleic acid intravenously (prepared into the desired concentration with sterile saline containing 0.1% […] immediately before use), and the vehicle control group was given an equivalent volume of 0.1% BSA saline. The mice were sacrificed 4 hours after the last administration, and the right lobes of the lungs were removed and fixed in a 10% formaldehyde solution. After dehydration, embedding in paraffin, dissection, and staining with HE, they were observed under a microscope for pathological changes of the lung tissues. Here, the medicament used for the Comparative Example group was the 4-[(2-amino-3,5-dibromobenzyl)amino]adamantan-1-ol hydrochloride (racemic) prepared in Comparative Example 1. Table 1. Criteria for histological grading of lung injury
# The above indicators are multiplied by different weighting numbers depending on the significance of the pathology (alveolar wall thickening × 1, inflammatory cell infiltration × 1, lung tissue necrosis × 3), and finally added up to obtain an overall lung pathology score. Table 2. Test results of lung pathologies of each group
# [5] = number of mice (11 per group) at score 3 (Moderate), 40 mg/kg in terms of free base, intravenously once a day for 4 times, oleic acid 300 mg/kg i.v.
# [6] = number of mice (11 per group) at score 4 (Severe), 40 mg/kg in terms of free base, intravenously once a day for 4 times, oleic acid 300 mg/kg i.v.
smiles,measurement,setting,value
"Nc1c(Br)cc(Br)cc1CN[C@@H]1[C@@H]2C[C@@H]3C[C@H]1C[C@@](O)(C3)C2 [Compound of Formula V, trans-4-[(2-amino-3,5-dibromobenzyl)amino]adamantan-1-ol hydrochloride]",reduction of the number of coughs,"[1]; compared with the model control group (P<0.05 or P<0.01), 15 mg/kg free base i.v.",significantly reduce the number of coughs
same,Number of coughs (times),"[1]; within 3 minutes after concentrated ammonia, 15 mg/kg in terms of free base i.v., 30 minutes after administration, x ± s, n=10, model control 41.7±8.76, hydrochloride, 15 mg/kg",19.5±6.50 times
same,Expectoration amount in 90min (mm),[2],45.1±5.39 mm
same,Phenol red secretion (OD number),[3],0.278±0.054 OD number
same,Overall lung pathology score,"[4]; group sum, weighted (alveolar wall thickening x 1, inflammatory cell infiltration x 1, lung tissue necrosis x 3), 40 mg/kg free base i.v. once a day for 4 times, model control 81, normal control 21, hydrochloride, 40 mg/kg",24^**▲
same,Alveolar wall thickening Level 0,"[4]; number of mice (11 per group) at score 0 (No pathological change), 40 mg/kg in terms of free base, intravenously once a day for 4 times, oleic acid 300 mg/kg i.v.",1
same,Inflammatory cell infiltration Level 0,"[4]; number of mice (11 per group) at score 0 (No pathological change), 40 mg/kg in terms of free base, intravenously once a day for 4 times, oleic acid 300 mg/kg i.v., hydrochloride",2
same,Lung tissue necrosis Level 1,"[4]; number of mice (11 per group) at score 1 (Occasional), 40 mg/kg in terms of free base, intravenously once a day for 4 times, oleic acid 300 mg/kg i.v.",0
same,Lung tissue necrosis Level 2,"[4]; number of mice (11 per group) at score 2 (Mild), 40 mg/kg in terms of free base, intravenously once a day for 4 times, oleic acid 300 mg/kg i.v.",0
same,Inflammatory cell infiltration Level 2,"[4]; number of mice (11 per group) at score 2 (Mild), 40 mg/kg in terms of free base, intravenously once a day for 4 times, oleic acid 300 mg/kg i.v., hydrochloride",2
same,Inflammatory cell infiltration Level 3,[4]; [5],0
same,Lung tissue necrosis Level 3,[4]; [5],0
same,Alveolar wall thickening Level 3,"[4]; number of mice (11 per group) at score 3 (Moderate), 40 mg/kg in terms of free base, intravenously once a day for 4 times, oleic acid 300 mg/kg i.v., hydrochloride",0
same,Alveolar wall thickening Level 4,[4]; [6],0
same,Inflammatory cell infiltration Level 4,[4]; [6],0
same,Lung tissue necrosis Level 4,[4]; [6],0
